Data set [1] can be described thus: Stability (half life) in buffer solutions at pH 3, 5 and 7 at 50, 75 or 100 °C. It is filed as physicochemical. The following applies: for half-life: buffer; for Stability in buffered solutions: buffered solutions at pH 3, 5 and 7; for Stability compared with aspartame: buffered solutions studied, except pH 3 at 100 °C. As to the method:
α-L-Aspartyl-2-methylalanine[β(+)Fenchyl]ester (Example 9), α-L-Aspartyl-D-alanine[β(+)Fenchyl]ester, (Example 10) and aspartame L-Aspartyl-L-phenylalanine methyl ester were studied for stability at pH3, 5 and 7 in buffer solutions maintained at 50° C., 75° C., or 100° C., the following results were obtained: […]

Data set [2] in a line: Sweetness determination by a panel of experts: aqueous solutions matched to sucrose standard solutions (sucrose equivalence). More on the design: key to Sucrose equivalence: weight % sucrose solution of matched sweetness. The text has this:
A taste procedure for determination of sweetness merely involves the determination of sucrose equivalency. Sucrose equivalence for sweeteners are readily determined. The amount of a sweetener that is equivalent to a given weight percent sucrose can be determined by having a panel of tasters taste solutions of a sweetener at known concentrations and match its sweetness to standard solutions of sucrose.
The following examples further illustrate the invention. In the following examples, the sensory evaluation were obtained by a panel of experts using known weight percent aqueous solutions of the exemplified compounds and were matched to sucrose standard solutions.

The conditions of data set [3]: prior art statement; cited from earlier work.
Setting [4] is: pH 3, buffer solution, 50 °C, pH 3.
Where [5] appears, read: pH 3, buffer solution, 75 °C, pH 3.
Setting [6] is: pH 3, buffer solution, 100 °C, pH 3.
[7] abbreviates: pH 5, buffer solution, 50 °C, pH 5.
The mark [8] stands for this setting: pH 5, buffer solution, 75 °C, pH 5.
The mark [9] stands for this setting: pH 5, buffer solution, 100 °C, pH 5.
Where [10] appears, read: pH 7, buffer solution, 100 °C, pH 7.
The mark [11] stands for this setting: concentration 0.00185 (weight percent aqueous solution).
The mark [12] stands for this setting: concentration 0.0025 (weight percent aqueous solution).
Setting [13] is: concentration 0.00375 (weight percent aqueous solution).
Where [14] appears, read: concentration 0.005 (weight percent aqueous solution).
[15] abbreviates: concentration 0.00692 (so in the source), weight percent aqueous solution.
The mark [16] stands for this setting: concentration 0.0075 (weight percent aqueous solution).
The mark [17] stands for this setting: concentration 0.01 (weight percent aqueous solution).
[18] abbreviates: concentration 0.00012 (weight percent aqueous solution).
Setting [19] is: concentration 0.00024 (weight percent aqueous solution).
[20] abbreviates: concentration 0.00047 (weight percent aqueous solution).
[21] abbreviates: concentration 0.00092 (weight percent aqueous solution).
Where [22] appears, read: concentration 0.010 (weight percent aqueous solution).
Setting [23] is: concentration 0.025 (weight percent aqueous solution).
Where [24] appears, read: concentration 0.05 (weight percent aqueous solution).

Where “and” joins values, the source holds several entries; their conditions need not be identical. Equal values may be shown once. Where a SMILES comes first, the peptide text is derived from it. The star is where a group is joined. tBu = CC(C)(C)*

What is called half-life is how long it takes for the measured level to halve. As for `CC(C)(NC(=O)[C@@H](N)CC(=O)O)C(=O)OC1C2(C)CCC(C2)C1(C)C` (single isomer, unassigned) [Example 9, α-L-Aspartyl-2-methylalanine[β(+)Fenchyl]ester], the half-life in data set [1] (setting [4]) is 1540 h; in data set [1] (setting [5]), 72 h; in data set [1] (setting [6]) it was 8.4 h; in data set [1] (setting [7]) it was 3600 h; in data set [1] (setting [8]), 360 h; in data set [1] (setting [9]), 33 h. In data set [1] (setting [10]), this compound gave a half-life of 67 h. Further, the “Stability compared with Example 10” value in data set [1] (buffered solutions) was “more stable”. For the same compound, the “Stability in buffered solutions” value in data set [1] is “outstanding stability”. Besides, in data set [1], the “Stability compared with aspartame” value is given as “better stability”. Besides, the Sucrose equivalence was 5.7% in data set [2] (setting [11]); 6.0% and 4.3% and 4.25% in data set [2] (setting [12]); 6.0% in data set [2] (setting [13]); 7.37% and 7.0% and 6.0% in data set [2] (setting [14]); 3.5% in data set [2] (setting [15]); 8.5% in data set [2] (setting [16]). Further, in data set [2] (setting [17]), the Sucrose equivalence was 9.25% and 9.0%. In addition, the “Sweetness relative to sucrose” value was 3100 × Sucrose in data set [2] (setting [11]); 2400 × Sucrose and 1733 × Sucrose and 1700 × Sucrose in data set [2] (setting [12]); 1600 × Sucrose in data set [2] (setting [13]); 1475 × Sucrose and 1400 × Sucrose and 1200 × Sucrose in data set [2] (setting [14]); 3800 × Sucrose in data set [2] (setting [15]); 1133 × Sucrose in data set [2] (setting [16]). In addition, the “Sweetness relative to sucrose” value in data set [2] (setting [17]) is 925 × Sucrose and 900 × Sucrose.
Take `C[C@@H](NC(=O)[C@@H](N)CC(=O)O)C(=O)OC1C2(C)CCC(C2)C1(C)C` (single isomer, unassigned) [Example 10, α-L-Aspartyl-D-alanine[β(+)Fenchyl]ester]: the half-life is 528 h in data set [1] (setting [4]); 31.2 h in data set [1] (setting [5]); 3.9 h in data set [1] (setting [6]); 3140 h in data set [1] (setting [7]); 122 h in data set [1] (setting [8]); 14 h in data set [1] (setting [9]). The compound further gave a half-life in data set [1] (setting [10]) of 10 h. In addition, the “Stability in buffered solutions” value in data set [1] is recorded as “outstanding stability”. Besides, the “Stability compared with aspartame” value in data set [1] is “better stability”. In addition, the Sucrose equivalence in data set [2] (setting [18]) is 0.6%; in data set [2] (setting [19]), 1.42%; in data set [2] (setting [20]), 2.28%; in data set [2] (setting [21]) it was 4.7%; in data set [2] (setting [11]), 6.5%; in data set [2] (setting [12]), 6.0%. Moreover, the Sucrose equivalence in data set [2] (setting [13]) is 8.6%; in data set [2] (setting [14]), 9.3% and 10.0%; in data set [2] (setting [16]) it was 9.0%; in data set [2] (setting [17]), 11.0%. Besides, the “Sweetness relative to sucrose” value is 5000 × Sucrose in data set [2] (setting [18]); 5900 × Sucrose in data set [2] (setting [19]); 4900 × Sucrose in data set [2] (setting [20]); 5100 × Sucrose in data set [2] (setting [21]); 3500 × Sucrose in data set [2] (setting [11]); 2400 × Sucrose in data set [2] (setting [12]). Moreover, the “Sweetness relative to sucrose” value in data set [2] (setting [13]) was 2300 × Sucrose; in data set [2] (setting [14]), 1860 × Sucrose and 2000 × Sucrose; in data set [2] (setting [16]), 1200 × Sucrose; in data set [2] (setting [17]), 1100 × Sucrose.
As for `COC(=O)[C@H](Cc1ccccc1)NC(=O)[C@@H](N)CC(=O)O` [Aspartame, L-Aspartyl-L-phenylalanine methyl ester, reference compound] (H-Asp-Phe-OMe), the half-life was 21.6 h in data set [1] (setting [5]); 5.3 h in data set [1] (setting [6]); 26.4 h in data set [1] (setting [8]); 5.3 h in data set [1] (setting [9]); less than 1 h in data set [1] (setting [10]). In data set [1] (pH 3, 100 °C, between Example 9 and Example 10), the “Stability compared with Example 9 and Example 10” value was “intermediate stability”.
On to `C[C@@H](NC(=O)[C@@H](N)CC(=O)O)C(=O)OC1C(C)(C)CCC1(C)C` [Example 1, L-Aspartyl-D-alanine(2,2,5,5-tetramethyl-1-cyclopentyl)ester], for which the Sucrose equivalence was determined as 2.5 in data set [2] (setting [14]), 3.7 in data set [2] (setting [22]), 7.7 in data set [2] (setting [23]) and 8.0 in data set [2] (setting [24]).
Turning to `CC(C)(NC(=O)[C@@H](N)CC(=O)O)C(=O)OC1C(C)(C)CCC1(C)C` [Example 2, N-(L-Aspartyl)-2-methylalanine(2,2,5,5-tetramethyl-1-cyclopentyl)ester], the Sucrose equivalence in data set [2] (setting [14]) was 2.00; in data set [2] (setting [22]), 3.25; in data set [2] (setting [23]), 5.75.
`C[C@@H](NC(=O)[C@@H](N)CC(=O)O)C(=O)OC1(C)CCCC1` [Example 6, N-L-Aspartyl-D-alanine (1-methyl-1-cyclopentyl)ester]: in data set [2] (setting [24]), the Sucrose equivalence is 2.0 and the “Sweetness relative to sucrose” value is on record as 40 × Sucrose.
For the compound `CC1CCC(C)C1OC(=O)[C@@H](C)NC(=O)[C@@H](N)CC(=O)O` (stereo partly drawn) [Example 7, N-L-Aspartyl-D-alanine(2,5-dimethylcyclopentyl)ester], the Sucrose equivalence turned out to be 1.16 in data set [2] (setting [14]), 2.3 in data set [2] (setting [22]), 4.82 in data set [2] (setting [23]) and 7.50 in data set [2] (setting [24]). Further, the “Sweetness relative to sucrose” value in data set [2] (setting [14]) was 233 × Sucrose; in data set [2] (setting [17]) it was 230 × Sucrose; in data set [2] (setting [23]) it was 193 × Sucrose; in data set [2] (setting [24]), 150 × Sucrose.
Turning to `CC1CCC(C)C1OC(=O)C1(NC(=O)[C@@H](N)CC(=O)O)CC1` (stereo partly drawn) [L-Aspartyl-1-aminocyclopropyl-1-carboxylicacid, 2,5-dimethyl-1-cyclopentyl ester], the Sucrose equivalence in data set [2] (setting [14]) was determined as 1.0; in data set [2] (setting [22]) it was 2.2; in data set [2] (setting [23]), 3.3. In addition, the “Sweetness relative to sucrose” value in data set [2] (setting [14]) is listed as 200 × Sucrose; in data set [2] (setting [17]) it was 217 × Sucrose; in data set [2] (setting [23]), 133 × Sucrose.
Turning to `CCC(C)(C)OC[C@H](NC(=O)[C@@H](N)CC(=O)O)C(=O)OC` [L-aspartyl-O-t-amyl-L-serine methyl ester], the “Sweetness (in words)” value in data set [3] is given as “significant sweetness”.
Regarding `COC(=O)[C@H](COC(C)(C)C)NC(=O)[C@@H](N)CC(=O)O` [L-aspartyl-O-t-butyl-L-serine methyl ester] (H-Asp-Ser(tBu)-OMe), the “Sweetness (in words)” value in data set [3] was “significant sweetness”.

The record behind these values is patent US4822635A, “Sweetening with L-aminodicarboxylic acid esters” (General Foods Corporation, priority 1988, dated 1989).
